Laboratory results from PMC3441526, “KCN1, a Novel Synthetic Sulfonamide Anticancer Agent: In Vitro and In Vivo Anti-Pancreatic Cancer Activities and Preclinical Pharmacology” (PLoS ONE, 2012).
Like-named read-outs stand apart in the source and are kept apart here.

Assays:
[1] = Tolerability on repeated intraperitoneal dosing; format: in vivo, mice
glioma cells = tested on: glioma cells; design: method as in PMID 22923450; conditions: glioma cells ref 31; cited from earlier work
Mia Paca-2 cells = assay: MTT cell survival assay; format: cell-based; conditions: Homo sapiens
Method: (§1) The effect of the test compound on human pancreatic cancer cell viability, expressed as the percentage of cell survival, was determined using the MTT assay [45]–[47]. Cells were grown in 96-well plates at 4–5×10^3 cells per well and exposed to different concentrations of the test compound (0, 1, 5, 12.5, 25, 50 or 100 µM). After incubation for different times, 10 µL of the MTT solution (5 mg/mL; Sigma; St. Louis, MO) were added into each well. The plates were incubated for 2–4 hr at 37°C. The supernatant was then removed and the formazan crystals were dissolved with 100 µL of DMSO. The absorbance at 570 nm was recorded using an OPTImax microplate reader (Molecular Devices; Sunnyvale, CA). The cell survival percentages were calculated by dividing the mean optical density (OD) of compound-containing wells by that of DMSO-containing control wells. Three separate experiments were accomplished to determine the IC50 values.

HPAC cells [2] = assay: MTT cell survival assay; format: cell-based; conditions: Homo sapiens, 72 h
Method: as §1

Panc-1 cells [3] = assay: MTT cell survival assay; format: cell-based; conditions: Homo sapiens
Method: as §1

[4] = Pharmacokinetic study in mice; format: in vivo, CD-1 mice; conditions: for dose recovered as parental KCN1 from urine: first 24 hr
Method: Female CD-1 and nude mice were administered 35 mg/kg body weight of KCN1 as either a single intravenous injection via a tail vein or via an intraperitoneal injection. At selected time points after dosing, groups of three mice/time point were subjected to a retro-orbital bleed. The blood was collected into heparinized tubes, and plasma was separated by centrifugation. Tissues (brain, skeletal muscle, kidneys, liver, spleen, and heart) were collected by necropsy. Urine and feces were collected on ice for 24 h from mice housed in metabolic cages (n = 3/study). The collection containers and cages were washed twice with 0.9% saline solution, and each urine collection and each wash was analyzed separately, then values were added together for each mouse to determine the total KCN1 present in urine during the collection period. Pharmacokinetic values were derived using Phoenix WinNonlin Version 6.0 (Mountain View, CA).
An HPLC protocol was developed to detect KCN1 in different matrices (plasma, urine or tissue homogenates) using an Agilent 1120 instrument. KCN1 was separated on a Zorbax SB-C18 (5 µm, 150 × 4.6 mm) analytical column with a Zorbax Reliance Cartridge Guard Column (SB-C18), and the eluate was monitored by UV at 254 nm. The mobile phase was composed of “A” (methanol +0.1% Et3N)-“B” (ddH2O+0.1% Et3N) (80∶20, v/v). Prior to application, the mobile phase was filtered and degassed using a Millipore glass filter system with a nylon membrane (0.2 µm). The peaks for KCN1 were used to establish standard curves and for quantitative analysis of samples. Quantification of the compound was achieved by determination of the peak area at the retention time of approximately 4.4 minutes.
Plasma (100 µL) was mixed with 200 µL of methanol, vortexed, and centrifuged to remove precipitated proteins. The supernatant was evaporated to dryness under a stream of air. The residue was dissolved in 100 µL of the mobile phase, and 10 µL was injected onto the HPLC system for analysis. Weighed tissues were homogenized in two to five volumes of PBS (based on the weight of the tissue samples), and portions of the homogenates were processed in the same manner as the plasma samples.

[5] = Plasma protein binding assay (ultrafiltration); format: in vitro ADME; conditions: mouse plasma
Method: The extent to which KCN1 was bound by mouse plasma proteins was assessed by a previously described method involving the use of a micro-ultrafiltration system. Samples of mouse plasma containing KCN1 at concentrations of 1.0 and 10 µM were maintained at 37°C for 1 h. Controls were prepared using methanol in place of plasma. From each of these preparations, a portion was taken and placed in a sample reservoir of an Amicon Centrifree® ultrafiltration system (Millipore Co., Bedford, MA). The filter systems were centrifuged at 2,000 × g until the reservoirs were dry. From each sample, triplicate portions were taken for analysis by HPLC. The amounts present in the filtrate were designated as “free drug” (F). The concentrations of the unfiltered solutions were also determined by triplicate analyses. This amount represented the “total drug” concentration (T). The amount bound to the filter (X) was also considered. The percentage of KCN1 bound to plasma proteins was calculated by the following formula: % bound = [(T-F-X)/T]×100.

HPAC cells [6] = assay: Anchorage-independent growth assay (soft agar); format: cell-based, human; conditions: 14 days
Method: (§2) Pancreatic cancer cells were treated with various concentrations of KCN1 in 0.8 ml of 0.35% agar containing 10% FBS. The cultures were maintained in 37°C, 5% CO2 incubator for two weeks. Then, cell colonies were observed and scored under a microscope.

Panc-1 cells [7] = assay: Anchorage-independent growth assay (soft agar); format: cell-based, human; conditions: Panc-1, soft agar, 14 days
Method: as §2

[8] = CD-1 mice, 35 mg/kg, either route

Structure (SMILES): COc1ccc(S(=O)(=O)N(Cc2ccc3c(c2)C=CC(C)(C)O3)c2ccccc2)cc1OC [KCN1, 3,4-dimethoxy-N-[(2,2-dimethyl-2H-chromen-6-yl)methyl]-N-phenylbenzenesulfonamide]
- pathological examination of brain, kidneys, GI tract or lungs at necropsy ([1]; data not shown): no ultra-structural changes
- signs of toxicity, behavior and appearance ([1]; i.p. up to 60 mg/kg daily for up to 12 weeks): no apparent signs of toxicity
- tolerability of regimen ([1]; i.p. up to 60 mg/kg daily in cremophor:ethanol for up to 12 weeks): well tolerated
- time to reversal of liver swelling after discontinuation of treatment ([1]; mouse, in vivo): 2–3 weeks
- blood cell populations and blood chemistry ([1]; preliminary analyses, data not shown): within normal limits
- liver finding at autopsy ([1]; tissue edema with bile duct stasis, no hepatocyte death, may be caused by cremophor:ethanol formulation): Swelling was observed in the livers
- cytostatic effect (glioma cells): little cytostatic effect
- inhibition at 100 µM (Mia Paca-2 cells; Mia Paca-2, 100 µM, 72 h, read-out: inhibition of cell growth): 61%
- IC50 (Mia Paca-2 cells; Mia Paca-2, 72 h, MTT, read-out: Cytotoxicity: IC50): 69.9 ± 2.12 µM
- inhibition at 100 µM (HPAC cells [2]; 100 µM, read-out: inhibition of cell growth): 83%
- IC50 (HPAC cells [2]; MTT, read-out: Cytotoxicity: IC50): 17.91 ± 0.12 µM
- inhibition at 100 µM (Panc-1 cells [3]; Panc-1, 100 µM, 72 h, read-out: inhibition of cell growth): 53%
- IC50 (Panc-1 cells [3]; Panc-1, 72 h, MTT, read-out: Cytotoxicity: IC50): 100 ± 2.35 µM
- dose recovered as parental KCN1 from urine ([4]; CD-1 mice, 35 mg/kg I.P.): less than 0.5%
- dose recovered as parental KCN1 from urine ([4]; CD-1 mice, 35 mg/kg intravenously): less than 1%
- detection in brain [4, 8]: could not be detected after 6 h
- time detectable in heart, lungs, liver, spleen, kidneys and skeletal muscle [4, 8]: at least 24 h
- time plasma concentration still detectable ([4]; CD-1 mice, I.P. 35 mg/kg): ≥ 24 h
- time plasma concentration still detectable ([4]; CD-1 mice, I.V. 35 mg/kg): at least 6 h
- Tmax ([4]; female, mouse, plasma, ip, CD-1 mice, I.P. 35 mg/kg, read-out: time of maximum plasma level (converted)): 0.5 h
- concentration at 6 h ([4]; female, mouse, plasma, iv, CD-1 mice, I.V. 35 mg/kg, 6 h after dosing): < 300 ng/mL
- concentration at 5 min ([4]; female, mouse, plasma, iv, CD-1 mice, bolus I.V. 35 mg/kg, 5 minutes): 9980 ng/mL
- half-life ([4]; female, mouse, Brain, CD-1, IP 35 mg/kg): 3.13 h
- Tmax ([4]; female, mouse, Brain, CD-1, IP 35 mg/kg, read-out: Tmax): 1 h
- half-life ([4]; female, mouse, Brain, CD-1, IV 35 mg/kg): 0.53 h
- Tmax ([4]; female, mouse, Brain, CD-1, IV 35 mg/kg, read-out: Tmax): 0.08 h
- half-life ([4]; female, mouse, Heart, CD-1, IP 35 mg/kg): 2.19 h
- Tmax ([4]; female, mouse, Heart, CD-1, IP 35 mg/kg, read-out: Tmax): 0.17 h
- half-life ([4]; female, mouse, Heart, CD-1, IV 35 mg/kg): 22.1 h
- Tmax ([4]; female, mouse, Heart, CD-1, IV 35 mg/kg, read-out: Tmax): 0.08 h
- half-life ([4]; female, mouse, Kidneys, CD-1, IP 35 mg/kg): 2.5 h
- Tmax ([4]; female, mouse, Kidneys, CD-1, IP 35 mg/kg, read-out: Tmax): 0.08 h
- half-life ([4]; female, mouse, Kidneys, CD-1, IV 35 mg/kg): 18.8 h
- Tmax ([4]; female, mouse, Kidneys, CD-1, IV 35 mg/kg, read-out: Tmax): 0.08 h
- half-life ([4]; female, mouse, Liver, CD-1, IP 35 mg/kg): 3.5 h
- Tmax ([4]; female, mouse, Liver, CD-1, IP 35 mg/kg, read-out: Tmax): 4 h
- half-life ([4]; female, mouse, Liver, CD-1, IV 35 mg/kg): 1.15 h
- Tmax ([4]; female, mouse, Liver, CD-1, IV 35 mg/kg, read-out: Tmax): 0.08 h
- half-life ([4]; female, mouse, Lungs, CD-1, IP 35 mg/kg): 2.27 h
- Tmax ([4]; female, mouse, Lungs, CD-1, IP 35 mg/kg, read-out: Tmax): 0.25 h
- half-life ([4]; female, mouse, Lungs, CD-1, IV 35 mg/kg): 23.3 h
- Tmax ([4]; female, mouse, Lungs, CD-1, IV 35 mg/kg, read-out: Tmax): 2 h
- half-life ([4]; female, mouse, Muscle, CD-1, IP 35 mg/kg): 1.86 h
- Tmax ([4]; female, mouse, Muscle, CD-1, IP 35 mg/kg, read-out: Tmax): 0.17 h
- half-life ([4]; female, mouse, Muscle, CD-1, IV 35 mg/kg): 1.52 h
- Tmax ([4]; female, mouse, Muscle, CD-1, IV 35 mg/kg, read-out: Tmax): 0.08 h
- half-life ([4]; female, mouse, Plasma, CD-1, IP 35 mg/kg): 7.35 h
- half-life ([4]; female, mouse, Plasma, CD-1, IV 35 mg/kg): 0.16 h
- half-life ([4]; female, mouse, Spleen, CD-1, IP 35 mg/kg): 2.35 h
- Tmax ([4]; female, mouse, Spleen, CD-1, IP 35 mg/kg, read-out: Tmax): 2 h
- half-life ([4]; female, mouse, Spleen, CD-1, IV 35 mg/kg): 0.46 h
- Tmax ([4]; female, mouse, Spleen, CD-1, IV 35 mg/kg, read-out: Tmax): 0.08 h
- binding to plasma proteins ([5]; 1.0 µM): 90.96%
- binding to plasma proteins ([5]; 10.0 µM): 99.32%
- decrease in number of colonies formed (HPAC cells [6]): 4 fold
- decrease in number of colonies formed (Panc-1 cells [7]): 3 fold
